Test results taken from article PMC12303380 (PLOS Pathogens, 2025).
Values joined by “and” are separate entries in the source; they are usually repeats but may differ in a detail not shown here. Equal entries are not always repeated.

Legend:
[1] = system: CD56dimNKG2A+ NK cells; format: cell-based, human
[2] = system: CD56dimNKG2A- NK cells; format: cell-based, human
[3] = system: CD94/NKG2A; format: binding, human
[4] = system: CD94/NKG2C; format: binding, human
[5] = system: CD94/NKG2A; settings: cited from earlier work
[6] = target: HLA-E*0103 (Homo sapiens, UniProt P13747); format: binding

For NLVPMVATV [PP65], the “CD107a+CD56dimCD16+NKG2A+NKG2C-CD57-NK cells” value [1] was 4.88 and 4.5 and 3.34 and the “Perforin+CD56dimCD16+NKG2A-NKG2C-CD57-NK cells” value [2] was 97.2 and 72.64 and 80.98 and 81.41.
With EADPTGHSY [MAGE-1] the “CD94/NKG2A+HLA-E+” value [3] was 0.02% and 0.28% and 0.56% and the “CD94/NKG2C+HLA-E+” value [4] was 0.54% and 1.07% and 0.11%.
In the case of VMPLSAPTL, the “recognition of HLA-E/peptide complex by CD94/NKG2A on NK cells” value [5] is given as “could not be interacted with CD94/NKG2A”.
For LQPRTFLL, the “recognition of HLA-E/peptide complex by CD94/NKG2A on NK cells” value [5] is given as “could recognize and interact”.
With EADPTGHSY/ NLVPMVATV [MAGE-1/HCMV PP65] the “HLA-E MFI” value [6] was 8070 and 8138 and 7351.
For VMAPRTLIL [HLA-Cw*03 leading seq], the FI [6] was 2.38 and 2.67 and 2.55, the “FI (fluorescent index of HLA-E expression)” value [6] was 2.55 and the “HLA-E MFI” value [6] was 26721 and 22777 and 24852. The “CD94/NKG2A+HLA-E+” value [3] was 46.76% and 47.67% and 24.83%, the “frequency of CD94/NKG2A+HLA-E+ cells” value [3] was 47.67% and the “CD94/NKG2C+HLA-E+” value [4] was 1.12% and 2.94% and 8.23%.
In the case of AISPRTLNA [AA9], the “recognition of HLA-E/peptide complex by NKG2A/CD94 on NK cells” value [5] is listed as “unable to be recognized by NKG2A/CD94”.
